Test [1] addresses EIF2AK3 (PERK) catalytic domain (amino acids 536-1116) (Homo sapiens (Human), UniProt Q9NZJ5). The experiment in a line: PERK in vitro activity assay (isolated), TR-FRET kinase assay. Particulars: isolated PERK enzyme, 1.5 μM ATP, GFP-eIF2a substrate; read-out: Biochemical IC50. The method, boiled down:
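Human PERK catalytic domain (aa 536-1116) with 100-200 nM GFP-eIF2a in 50 mM HEPES pH 7.5, 10 mM MgCl2, 1.0 mM EGTA, 0.01% Brij-35; enzyme-started reaction run 45 min at room temperature. Stopped with 10 mM EDTA, 2 nM Tb-anti-phospho-eIF2a added for 90 min; IC50 from TR-FRET ratio by 4-parameter logistic fit.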
(In general: In TR-FRET formats the signal depends on donor and acceptor labels being close together.)

Another test has as its target PERK (Homo sapiens (Human), UniProt Q9NZJ5). The experiment in a line: PERK cellular assay (TR-FRET, HEK293-EGFP-eIF2α cells, tunicamycin-induced ER stress). Type of test: cell-based. Particulars: tunicamycin 2 hours, read-out: Cellular IC50 (μM) (EIF2a). Summed up: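 Cells pre-incubated with inhibitor 30 min at 37 °C, then ER stress induced with […] tunicamycin for 2 h. TR-FRET read on lysates; ratio normalized to DMSO control as percent inhibition over a 10-point, 3-fold dilution series; IC50 from 4-parameter logistic fit.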

Chain of EIF2AK3 (PERK) catalytic domain (amino acids 536-1116) (Q9NZJ5 536-1116): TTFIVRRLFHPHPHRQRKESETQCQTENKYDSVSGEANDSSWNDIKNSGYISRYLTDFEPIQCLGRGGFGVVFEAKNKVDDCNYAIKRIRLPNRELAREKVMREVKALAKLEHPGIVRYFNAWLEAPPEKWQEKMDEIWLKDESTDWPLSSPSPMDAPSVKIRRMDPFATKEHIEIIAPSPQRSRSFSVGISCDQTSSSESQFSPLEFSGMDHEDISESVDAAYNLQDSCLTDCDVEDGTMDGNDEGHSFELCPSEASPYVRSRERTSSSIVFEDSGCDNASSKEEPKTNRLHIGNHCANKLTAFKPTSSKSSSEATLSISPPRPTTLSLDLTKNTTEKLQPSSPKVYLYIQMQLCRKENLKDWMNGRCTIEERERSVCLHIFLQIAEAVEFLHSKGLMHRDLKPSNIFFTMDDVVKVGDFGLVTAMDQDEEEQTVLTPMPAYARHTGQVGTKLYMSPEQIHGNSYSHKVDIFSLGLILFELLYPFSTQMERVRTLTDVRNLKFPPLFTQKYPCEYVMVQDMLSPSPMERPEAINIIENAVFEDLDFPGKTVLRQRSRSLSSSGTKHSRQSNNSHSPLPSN
Chain of PERK (Q9NZJ5 30-1116): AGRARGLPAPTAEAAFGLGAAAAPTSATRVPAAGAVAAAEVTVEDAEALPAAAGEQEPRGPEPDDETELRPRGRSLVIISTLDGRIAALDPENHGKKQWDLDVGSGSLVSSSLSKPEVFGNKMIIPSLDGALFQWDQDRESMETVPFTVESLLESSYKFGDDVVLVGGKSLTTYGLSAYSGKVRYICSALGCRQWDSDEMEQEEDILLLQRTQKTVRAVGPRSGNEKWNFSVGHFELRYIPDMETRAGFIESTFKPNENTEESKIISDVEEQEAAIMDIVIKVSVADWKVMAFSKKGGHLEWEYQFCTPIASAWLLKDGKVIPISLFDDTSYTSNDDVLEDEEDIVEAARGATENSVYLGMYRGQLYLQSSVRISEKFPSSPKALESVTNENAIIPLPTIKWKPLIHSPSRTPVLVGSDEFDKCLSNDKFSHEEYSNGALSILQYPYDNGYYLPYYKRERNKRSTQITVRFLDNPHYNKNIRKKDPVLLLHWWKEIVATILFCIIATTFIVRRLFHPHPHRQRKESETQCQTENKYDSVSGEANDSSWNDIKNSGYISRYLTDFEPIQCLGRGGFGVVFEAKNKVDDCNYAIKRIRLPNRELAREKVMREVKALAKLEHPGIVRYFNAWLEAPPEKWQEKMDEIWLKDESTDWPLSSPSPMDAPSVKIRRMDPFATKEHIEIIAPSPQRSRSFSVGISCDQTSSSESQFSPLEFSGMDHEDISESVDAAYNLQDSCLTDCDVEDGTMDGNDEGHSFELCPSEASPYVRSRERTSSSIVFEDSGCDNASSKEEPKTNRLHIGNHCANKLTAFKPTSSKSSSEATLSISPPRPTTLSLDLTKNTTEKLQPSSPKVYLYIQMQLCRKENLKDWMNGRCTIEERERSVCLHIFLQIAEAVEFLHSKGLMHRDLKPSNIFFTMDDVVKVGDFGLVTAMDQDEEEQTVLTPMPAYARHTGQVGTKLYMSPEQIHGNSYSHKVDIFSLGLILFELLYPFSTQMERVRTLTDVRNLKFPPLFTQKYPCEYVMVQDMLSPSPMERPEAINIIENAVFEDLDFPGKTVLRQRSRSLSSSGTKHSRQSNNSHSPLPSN

Consider `Cc1c(-c2cnc(N)c(C(=O)NC(C)C)c2)ccc(NC(=O)C(O)c2cc(F)cc(F)c2)c1F` (stereo not shown) [Example 115, 2-amino-5-(4-(2-(3,5-difluorophenyl)-2-hydroxyacetamido)-3-fluoro-2-methylphenyl)-N-isopropylnicotinamide], for which the figures for the IC50 (in test [1]; on PERK) were 1 to 25 nM and 0.001 to 0.025 µM, respectively.

Take `Cc1c(-c2cnc(N)c(C(=O)NC(C)C)c2)ccc(NC(=O)C(O)c2cc(F)cc(F)c2)c1F` (stereo not shown) [Example 116, 2-amino-5-(4-(2-(3,5-difluorophenyl)-2-hydroxyacetamido)-3-fluoro-2-methylphenyl)-N-isopropylnicotinamide]: the concentration for half-maximal inhibition (IC50) is 251 to 500 nM in test [1] and 1 to 2 µM on PERK.

In the case of `CCNC(=O)c1cc(-c2ccc(NC(=O)C(O)c3cc(F)cc(F)c3)c(F)c2C)cnc1N` (stereo not shown) [Example 117, 2-amino-5-(4-(2-(3,5-difluorophenyl)-2-hydroxyacetamido)-3-fluoro-2-methylphenyl)-N-ethylnicotinamide], the concentration for half-maximal inhibition (IC50) in test [1] was 1 to 25 nM; on PERK, 0.001 to 0.025 µM.

Take `CCNC(=O)c1cc(-c2ccc(NC(=O)C(O)c3cc(F)cc(F)c3)c(F)c2C)cnc1N` (stereo not shown) [Example 118, 2-amino-5-(4-(2-(3,5-difluorophenyl)-2-hydroxyacetamido)-3-fluoro-2-methylphenyl)-N-ethylnicotinamide]: the figures for the half-inhibitory concentration (IC50) (in test [1]; at PERK) were 1 to 25 nM and 0.026 to 0.05 µM, respectively.

With `Cc1c(-c2cnc(N)c(C(=O)NC3CC3)c2)ccc(NC(=O)C(O)c2cc(F)cc(F)c2)c1F` (stereo not shown) [Example 119, 2-amino-N-cyclopropyl-5-(4-(2-(3,5-difluorophenyl)-2-hydroxyacetamido)-3-fluoro-2-methylphenyl) nicotinamide], the IC50 in test [1] lay in the range of 1 to 25 nM; on PERK, 0.001 to 0.025 µM.

On to `Cc1c(-c2cnc(N)c(C(=O)NC3CC3)c2)ccc(NC(=O)C(O)c2cc(F)cc(F)c2)c1F` (stereo not shown) [Example 120, 2-amino-N-cyclopropyl-5-(4-(2-(3,5-difluorophenyl)-2-hydroxyacetamido)-3-fluoro-2-methylphenyl) nicotinamide], for which the values for the IC50 (in test [1]; on PERK) were 1 to 25 nM and 0.051 to 0.1 µM, respectively.

`Cc1c(-c2cnc(N)c(C(=O)NC3COC3)c2)ccc(NC(=O)C(O)c2cc(F)cc(F)c2)c1F` (stereo not shown) [Example 121, 2-amino-5-(4-(2-(3,5-difluorophenyl)-2-hydroxyacetamido)-3-fluoro-2-methylphenyl)-N-(oxetan-3-yl)nicotinamide]: the values for the IC50 (in test [1]; on PERK) were 1 to 25 nM and 0.001 to 0.025 µM, respectively.

For the compound `Cc1c(-c2cnc(N)c(C(=O)NC3COC3)c2)ccc(NC(=O)C(O)c2cc(F)cc(F)c2)c1F` (stereo not shown) [Example 122, 2-amino-5-(4-(2-(3,5-difluorophenyl)-2-hydroxyacetamido)-3-fluoro-2-methylphenyl)-N-(oxetan-3-yl)nicotinamide], the IC50 fell in the range of 251 to 500 nM in test [1] and 0.501 to 1 µM on PERK.

`CC(C)NC(=O)c1cc(-c2ccc(NC(=O)C(O)c3cc(F)cc(F)c3)c(F)c2Cl)cnc1N` (stereo not shown) [Example 123, 2-amino-5-(2-chloro-4-(2-(3,5-difluorophenyl)-2-hydroxyacetamido)-3-fluorophenyl)-N-isopropylnicotinamide]: the IC50 fell in the range of 1 to 25 nM in test [1] and 0.001 to 0.025 µM on PERK.

Take `CC(C)NC(=O)c1cc(-c2ccc(NC(=O)C(O)c3cc(F)cc(F)c3)c(F)c2Cl)cnc1N` (stereo not shown) [Example 124, 2-amino-5-(2-chloro-4-(2-(3,5-diflouorophenyl)-2-hydroxyacetamido)-3-fluorophenyl)-N-isopropylnicotinamide]: the IC50 in test [1] lay in the range of 26 to 50 nM; on PERK it was 0.051 to 0.1 µM.

As for `Cc1cc(NC(=O)C(O)c2cc(F)cc(F)c2)c(F)cc1-c1cnc(N)c(C(=O)NC(C)C)c1` (stereo not shown) [Example 125, 2-amino-5-(4-(2-(3,5-difluorophenyl)-2-hydroxyacetamido)-5-fluoro-2-methylphenyl)-N-isopropylnicotinamide], the IC50 was in the range of 101 to 250 nM in test [1] and 0.501 to 1 µM on PERK.

One may read the IC50 as the concentration that gives 50% inhibition.

(Values after US12473296B2, “Perk inhibiting compounds” (HiberCell, Inc., priority 2019, dated 2025).)
